These results are taken from US11034650B2, “Compounds useful for treating a Mannheimia haemolytica or Histophilus somni infection” (Intervet Inc., priority 2016, dated 2021).

In brackets after ≈: the same amount, converted by molar mass.

What all share (type): cell-based
Assay [1] concerns Mannheimia haemolytica MH 6374 (ATCC 33396, reference strain). As to the kind of experiment: MIC, broth-microdilution (CLSI VET01-A4), strain MH 6374. The note with it: Mannheimia haemolytica strain MH 6374, broth-microdilution; unit assumed. In outline:
(§1)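 MIC is the lowest compound concentration showing no visible growth by eye, read from doubling-dilution microdilution trays. Method followed CLSI VET01-A4, with interpretation under CLSI VET01-S3.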
Background: Dilution methods test growth across graded concentrations, often in twofold steps.

The test system of assay [2] is Mannheimia haemolytica MH 13065 (XB0446-6003.9, BRD field isolate). As to the kind of experiment: MIC, broth-microdilution (CLSI VET01-A4), strain MH 13065. The note with it: Mannheimia haemolytica strain MH 13065, broth-microdilution; unit assumed. The procedure, abridged: as §1
Assay [3] has as its system Pasteurella multocida PM 6391 (ATCC 43137, reference strain). As to the kind of experiment: MIC, broth-microdilution (CLSI VET01-A4), strain PM 6391. The note with it: Pasteurella multocida strain PM 6391, broth-microdilution; unit assumed. The procedure, abridged:
as §1

Assay [4] deals with Mannheimia haemolytica MH 13093 (XB0472-6014.1, BRD field isolate). As to the kind of experiment: MIC, broth-microdilution (CLSI VET01-A4), strain MH 13093. The conditions noted are these: Mannheimia haemolytica strain MH 13093, broth-microdilution; unit assumed. In outline:
as §1

The subject of assay [5] is Mannheimia haemolytica MH 12587 (1071, BRD field isolate, macrolide-resistance: erm+, E+). As to the kind of experiment: MIC, broth-microdilution (CLSI VET01-A4), strain MH 12587. The note with it: Mannheimia haemolytica strain MH 12587, broth-microdilution; unit assumed. In outline:
as §1

The test system of assay [6] is Pasteurella multocida PM 10775 (080130003051, BRD field isolate). As to the kind of experiment: MIC, broth-microdilution (CLSI VET01-A4), strain PM 10775. The conditions noted are these: Pasteurella multocida strain PM 10775, broth-microdilution; unit assumed. The procedure, abridged:
as §1

The subject of assay [7] is Mannheimia haemolytica MH 10720 (154, BRD field isolate). As to the kind of experiment: MIC, broth-microdilution (CLSI VET01-A4), strain MH 10720. The conditions noted are these: Mannheimia haemolytica strain MH 10720, broth-microdilution; unit assumed. The procedure, abridged:
as §1

Assay [8] concerns Pasteurella multocida PM 6267 (P 2225 (L386), reference strain, mouse infection strain). As to the kind of experiment: MIC, broth-microdilution (CLSI VET01-A4), strain PM 6267. The note with it: Pasteurella multocida strain PM 6267, broth-microdilution; unit assumed. The procedure, abridged: as §1
Assay [9] relates to Mannheimia haemolytica MH 6357 (M7/2, reference strain, cattle infection strain). As to the kind of experiment: MIC, broth-microdilution (CLSI VET01-A4), strain MH 6357. The note with it: Mannheimia haemolytica strain MH 6357, broth-microdilution; unit assumed. In outline: as §1
Assay [10] concerns Pasteurella multocida PM 12080 (IV102277-0093, BRD field isolate). As to the kind of experiment: MIC, broth-microdilution (CLSI VET01-A4), strain PM 12080. The conditions noted are these: Pasteurella multocida strain PM 12080, broth-microdilution; unit assumed. In outline: as §1

In assay [1], `CC(=O)C(NC(=O)c1ccc(C#Cc2ccc(CNCC3CCCO3)cc2)cc1)C(=O)NO` (stereo not drawn) [Compound 413] came in with an MIC MH 6374 of 12.5 µg/mL (≈ 27.8 µM). Also, the MIC MH 13065 in assay [2] came to 6.3 µg/mL (≈ 14 µM). Moreover, in assay [3], the MIC PM 6391 amounted to 0.2 µg/mL (≈ 0.445 µM). In addition, the MIC MH 13093 in [4] was 25 µg/mL (≈ 55.6 µM). Also, the MIC MH 12587 in assay [5] came out at 6.3 µg/mL (≈ 14 µM). Also, the MIC PM 10775 in [6] was determined as 0.4 µg/mL (≈ 0.89 µM). In assay [7], the MIC MH 10720 was 3.1 µg/mL (≈ 6.9 µM). Moreover, in [8], the MIC PM 6267 turned out to be 50 µg/mL (≈ 111 µM). This molecule also had an MIC MH 6357 in assay [9] of 12.5 µg/mL (≈ 27.8 µM). Also, in assay [10], the MIC PM 12080 came out at 0.4 µg/mL (≈ 0.89 µM).

For `CC(=O)C(NC(=O)c1ccc(C#Cc2ccc(CNCc3nccs3)cc2)cc1)C(=O)NO` (stereo not drawn) [Compound 414], the MIC MH 6374 in assay [1] was determined as 1.6 µg/mL (≈ 3.46 µM). Further, the MIC MH 13065 in assay [2] came out at 0.8 µg/mL (≈ 1.73 µM). In [3], this molecule had an MIC PM 6391 not above 0.1 µg/mL. Besides, the MIC MH 13093 in assay [4] came out at 1.6 µg/mL (≈ 3.46 µM). In assay [5], this molecule gave an MIC MH 12587 of 0.4 µg/mL (≈ 0.865 µM). Further, the MIC PM 10775 in assay [6] stood at 0.4 µg/mL (≈ 0.865 µM). In [7], this molecule showed an MIC MH 10720 of 0.8 µg/mL (≈ 1.73 µM). Besides, in assay [8], the MIC PM 6267 was 6.3 µg/mL (≈ 13.6 µM). Moreover, the MIC MH 6357 in [9] stood at 0.8 µg/mL (≈ 1.73 µM). Moreover, the MIC PM 12080 in assay [10] was not above 0.1 µg/mL.

In assay [1], `CON=C(C)C(NC(=O)c1ccc(C#Cc2ccc(CNCc3ccncc3)cc2)cc1)C(=O)NO` (stereo not drawn) [Compound 415] displayed an MIC MH 6374 of 0.8 µg/mL (≈ 1.65 µM). In [2], this molecule yielded an MIC MH 13065 of 0.4 µg/mL (≈ 0.824 µM). In addition, the MIC PM 6391 in [3] was not above 0.1 µg/mL. The MIC MH 13093 in [4] stood at 0.4 µg/mL (≈ 0.824 µM). This molecule yielded an MIC MH 12587 in [5] of 0.2 µg/mL (≈ 0.412 µM). The MIC PM 10775 in assay [6] is not above 0.1 µg/mL. For the same molecule, the MIC MH 10720 in assay [7] amounted to 0.4 µg/mL (≈ 0.824 µM). In assay [8], the MIC PM 6267 is 1.6 µg/mL (≈ 3.3 µM). In addition, the MIC MH 6357 in assay [9] came out at 0.4 µg/mL (≈ 0.824 µM). This molecule also showed an MIC PM 12080 in assay [10] not above 0.1 µg/mL.
